{
  "source": "paper PMC6806071",
  "about": "(2019)",
  "key": {"[1]": {"test_system": "56-mer VTD3 aptamer (DNA, aptamer) AGCAGCACAGAGGTCATGGGGGGTGTGACTTTGGTGTGCCTATGCGTGCTACGGAA", "assay": "curcumin fluorescence displacement", "conditions": "0.1 mM NaCl; 5% ethanol; aptamer 100 nM, curcumin 0.6 µM displaced; up to 1 µM"}, "[2]": {"test_system": "Random ssDNA (70-mer) (DNA, single strand) AGGCCTAAGGGCATAATTAGCTCGAGCTCGAAAGGGGTTATATGATGATTTGAATTCATGGGGCCCGACT", "assay": "curcumin fluorescence displacement", "conditions": "0.1 mM NaCl, 5% ethanol, curcumin 0.6 µM, no sensor response"}, "[3]": {"test_system": "56-mer VTD3 aptamer (DNA, aptamer) AGCAGCACAGAGGTCATGGGGGGTGTGACTTTGGTGTGCCTATGCGTGCTACGGAA", "assay": "CD; curcumin fluorescence displacement", "conditions": "0.1 mM NaCl; CD: aptamer 0.8 µM, VTD3 20 µM; curcumin displaced"}, "[4]": {"test_system": "75-mer BPA aptamer (DNA, aptamer) ATACGAGCTTGTTCAATAGGAAATCACGATTAGGTCCTCCGTCTGTGTGCGGTTGTGGTGATAGTAAGAGCAATC", "assay": "curcumin fluorescence displacement", "conditions": "0.1 mM NaCl; 5% ethanol; aptamer 100 nM, curcumin 0.6 µM displaced"}, "[5]": {"test_system": "56-mer VTD3 aptamer (DNA, aptamer) AGCAGCACAGAGGTCATGGGGGGTGTGACTTTGGTGTGCCTATGCGTGCTACGGAA", "assay": "fluorescence enhancement; CD", "conditions": "0.1 M NaCl; 5% ethanol; SYBR Green I 5 µM"}, "[6]": {"test_system": "75-mer BPA aptamer (DNA, aptamer) ATACGAGCTTGTTCAATAGGAAATCACGATTAGGTCCTCCGTCTGTGTGCGGTTGTGGTGATAGTAAGAGCAATC", "assay": "fluorescence enhancement", "conditions": "0.1 mM NaCl; aptamer 100 nM, curcumin 0.6 µM"}, "[7]": {"test_system": "56-mer VTD3 aptamer (DNA, aptamer) AGCAGCACAGAGGTCATGGGGGGTGTGACTTTGGTGTGCCTATGCGTGCTACGGAA", "assay": "fluorescence titration, Langmuir fit", "conditions": "0.1 mM NaCl (methods: 0.1 M NaCl); 5% ethanol, 5 and 25 °C; curcumin 0.6 µM; b27 prints 0.7 µM, b25 0.7 nM"}},
  "data": [
    {"smiles": "C=C1CC[C@H](O)C/C1=C/C=C1\\CCC[C@]2(C)[C@@H]([C@H](C)/C=C/[C@H](C)C(C)C)CC[C@@H]12", "values": [
      {"measurement": "binding", "setting": "[1]", "result": "no"}
    ]},
    {"smiles": "C=C1CC[C@H](O)C/C1=C/C=C1\\CCC[C@]2(C)[C@@H]([C@H](C)CCCC(C)C)CC[C@@H]12", "values": [
      {"measurement": "binding", "setting": "[2]; VTD3 up to 1 µM", "result": "no"},
      {"measurement": "binding", "setting": "[3]", "result": "yes"}
    ]},
    {"smiles": "CC(=O)[C@H]1CC[C@H]2[C@@H]3CCC4=CC(=O)CC[C@]4(C)[C@H]3CC[C@]12C", "values": [
      {"measurement": "binding", "setting": "[1]", "result": "no"}
    ]},
    {"smiles": "CC(C)(c1ccc(O)cc1)c1ccc(O)cc1", "values": [
      {"measurement": "binding", "setting": "[4]", "result": "yes"},
      {"measurement": "binding", "setting": "[2]", "result": "no"}
    ]},
    {"smiles": "CCCN(CCCN(C)C)c1cc(C=C2Sc3ccccc3N2C)c2ccccc2[n+]1-c1ccccc1", "values": [
      {"measurement": "binding", "setting": "[5]", "result": "yes"}
    ]},
    {"smiles": "COc1cc(/C=C/C(=O)CC(=O)/C=C/c2ccc(O)c(OC)c2)ccc1O", "values": [
      {"measurement": "binding", "setting": "[6]", "result": "yes"},
      {"measurement": "KD", "setting": "[7]", "result": 0.7, "unit": "nM"}
    ]},
    {"smiles": "C[C@]12C=CC(=O)C=C1CC[C@@H]1[C@@H]2C(=O)C[C@@]2(C)[C@H]1CC[C@]2(O)C(=O)CO", "values": [
      {"measurement": "binding", "setting": "[1]", "result": "no"}
    ]},
    {"smiles": "C[C@]12CC[C@@H]3c4ccc(O)cc4CC[C@H]3[C@@H]1CC[C@@H]2O", "values": [
      {"measurement": "binding", "setting": "[1]", "result": "no"}
    ]}
  ]
}
